Assays:
humane T-Lymphozyten [1] = experiment: Viability of stimulated human T lymphocytes (CellTiter-Blue Cell Viability Assay); conditions: up to 5,0 µM; PWM (Figur 2A) or anti-CD3 (Figur 2B) stimulation
Description: Humane T-Lymphozyten wurden in serumfreiem Kulturmedium mit anti-CD3-Antikörpern (Klon OKT3) bzw. mit Pokeweed-Mitogen (PWM, 2 µg/ml) in An- und Abwesenheit verschiedener Konzentrationen von Minocyclin oder Pentaacetylcyclin stimuliert. Die Ermittlung der Proliferation (DNS-Synthese) der Zellen erfolgte nach 72 Stunden über den Einbau von 3H-Thymidin. Zur Überprüfung der Vitalität der Zellkulturen wurde der CeIITiter-Blue® Cell Viability-Assay (Promega) verwendet.

[2] = tested on: Experimentelle Autoimmune Enzephalomyelitis (EAE); experiment: Experimental autoimmune encephalomyelitis (EAE) mouse model of multiple sclerosis, therapeutic treatment, EAE score; type: in vivo, SJL/J-Maus; conditions: 100 µg/Tag; for Effekt auf die akute Phase der EAE (EAE-Score): intraperitoneal, Tag 12 bis Tag 20, therapeutic
Description: Als Maß für die Wirkung der therapeutischen Applikation wurde täglich der Schweregrad der EAE-Erkrankung (EAE-Score) bestimmt.

[3] = tested on: Experimentelle Autoimmune Enzephalomyelitis (EAE); experiment: Number of inflammatory immune cell infiltrates in the spinal cord after EAE (histology); type: in vivo, SJL/J-Mäusen; conditions: intraperitoneal or oral, 100 µg/Tag, Tag 13 bis Tag 17; analysis Tag 20
Text: Als Folge einer T-Lymphozyten-Aktivierung und -Differenzierung kommt es bei der EAE zu einer massiven Einwanderung (Infiltration) von Immunzellen in das Rückenmark der Mäuse. Diese Immunzellen vermitteln durch Demyeliniserung und neuronale Schädigung die weitere Erkrankung und lassen sich auf histologischen Schnitten als entzündliche Infiltrate darstellen und analysieren. Die Stärke der Infiltration von Immunzellen in das Rückenmark während der EAE korreliert im Allgemeinen mit dem Schweregrad der EAE-Erkrankung.
Deshalb erfolgte die histologische Analyse der entzündlichen Infiltrate im Rückenmark von SJL/J-Mäusen nach EAE und 5-tägiger therapeutischer Applikation von Minocycline bzw. Pentaacetylcyclin.
Die EAE wurde in SJL/J-Mäusen durch Immunisierung mit einem Myelinprotein-Peptid (Proteolipid-Protein 139-151, PLP 139-151) induziert. Die Applikation von Minocyclin, Pentaacetylcyclin und einem Kontroll-Vehikel erfolgte in einem therapeutischen Ansatz (nach eindeutiger Ausbildung der EAE-Erkrankung) in zwei getrennten Versuchsansätzen: • 1.) intraperitoneal (i.p., 100 µg/Tag) von Tag 13 bis Tag 17 • 2.) oral (100 µg/Tag) von Tag 13 bis Tag 17.
Am Tag 20 nach Immunisierung erfolgte die Aufarbeitung des Rückenmarks der Mäuse für histologische Untersuchungen (Paraffin-Schnitte, HE-Färbungen). […]

[4] = tested on: Splenozyten (Milzzellen) von SJL/J-Mäusen; experiment: Proliferation (DNA synthesis, 3H-thymidine incorporation) of stimulated mouse splenocytes; type: cell-based, Maus; conditions: 2,5 bzw. 5,0 µM
Description: (§1) In weiteren in vitro-Untersuchungen dienten Splenozyten (Milzzellen) von SJL/J-Mäusen zur Testung der immunmodulatorischen/immunsuppressiven Wirkung der Testsubstanzen. Nach Stimulation der Splenozyten mit Pokeweed-Mitogen (PWM, 1 μg/ml) oder mit […] (Klon 145-2C11, BD Biosciences) erfolgte die Inkubation dieser Immunzellen in An- oder Abwesenheit verschiedener Konzentrationen von Minocyclin und Pentaacetylcyclin. Die anschließende Proliferation (DNS-Synthese) der Zellen wurde nach 72 Stunden über den Einbau von […]-Blue® Cell Viability-Assays (Promega).

[5] = tested on: Splenozyten (Milzzellen) der SJL/J-Mäuse; experiment: Cytokine release of PWM-stimulated mouse splenocytes (ELISA of culture supernatants); type: cell-based, Maus; conditions: Splenocyte, remaining release at 5,0 µM, 48 h (Figur 6A), read-out: Reduktion der Freisetzung von IFN-γ (auf)
Description: Zur Verifizierung der an humanen […] in vitro-Untersuchungen an Splenozyten (Milzzellen) der SJL/J-Mäuse. Diese Splenozyten von wurden mit Pokeweed-Mitogen (PWM, 1 μg/ml) stimuliert und in An- oder Abwesenheit verschiedener Konzentrationen von Minocyclin und Pentaacetylcyclin inkubiert. Nach 48 Stunden erfolgte die Analyse der Zellkulturüberstände hinsichtlich der Freisetzung der Zytokine Interferon-y (IFN-y) und Interleukin-17 (IL-17) mittels spezifischer ELISA (R&D Systems).

humane T-Lymphozyten [6] = experiment: Cytokine production of PWM-stimulated human T lymphocytes (ELISA of culture supernatants); type: cell-based; conditions: PWM 2 µg/ml, 48 h
Text: Zytokine stellen Indikatoren für die Stärke einer Entzündungsreaktion dar und sind aktive Regulatoren der Differenzierung und Proliferation von T-Lymphozyten. Aus diesem Grund lassen sich aus den in einem in vitro-Testsystem gewonnenen Daten zur Produktion/Freisetzung von Zytokinen detailliertere Aussagen über die immunmodulierenden/immunsuppressiven Eigenschaften von Testsubstanzen herleiten.
Anschließend erfolgte die Messung der Konzentrationen von Interferon-y (IFN-y), Interleukin-2 (IL-2) und Interleukin-17 (IL-17) in den Zellkulturüberständen mittels spezifischer ELISA (R&D Systems).

[7] = tested on: Splenozyten (Milzzellen) von SJL/J-Mäusen; experiment: Viability of stimulated mouse splenocytes (CellTiter-Blue Cell Viability Assay); type: cell-based, Maus; conditions: up to 5,0 µM; PWM (Figur 5A) or anti-CD3 (Figur 5B) stimulation
Description: as §1

humane T-Lymphozyten [8] = experiment: Proliferation (DNA synthesis, 3H-thymidine incorporation) of stimulated human T lymphocytes; type: cell-based; conditions: remaining proliferation; PWM or anti-CD3 stimulation, 2,5 bis 5,0 µM
Text: In in vitro-Untersuchungen dienten humane T-Lymphozyten des peripheren Blutes gesunder Spender zur Testung der immunmodulatorischen/immunsuppressiven Wirkung der Testsubstanzen. Eine gesteigerte Zellteilung/Proliferation dieser Immunzellen nach Stimulation simuliert in vitro eine Entzündungsreaktion. Eine Verringerung dieser stimulierten Proliferation durch applizierte Substanzen veranschaulicht deren immunmodulatorischen/immunsuppressiven Eigenschaften.

| SMILES | Vitalität der T-Lymphozyten (humane T-Lymphozyten [1]) | Effekt auf die akute Phase der EAE (EAE-Score) [2] | Effekt auf die akute Phase der EAE (EAE-Score) ([2]; listed as Pentaacetylminocyclin) | Einfluss auf die akute Phase der EAE (EAE-Score) ([2]; oral, Tag 14 bis Tag 22, therapeutic) | Zahl der entzündlichen Infiltrate im Rückenmark [3] | Proliferation (DNS-Synthese) stimulierter Splenozyten ([4]; PWM (1 µg/ml) or anti-CD3 (145-2C11) stimulation, 72 h) | reduzierte Zellteilung (bis auf) ([4]; remaining proliferation, 4320 min) | activity at 5 µM [5] | Produktion/Freisetzung von IL-2 (humane T-Lymphozyten [6]; 2,5 bis 5,0 µM (Figur 3A)) | Produktion/Freisetzung von IFN-γ (humane T-Lymphozyten [6]; 2,5 bis 5,0 µM (Figur 3B)) | Produktion/Freisetzung von IL-17 (humane T-Lymphozyten [6]; 2,5 bis 5,0 µM (Figur 3C)) | Vitalität der Splenozyten [7] | reduzierte Zellteilung (bis auf) (humane T-Lymphozyten [8]) |
| --- | --- | --- | --- | --- | --- | --- | --- | --- | --- | --- | --- | --- | --- |
| CN(C)c1ccc(O)c2c1C[C@H]1C[C@H]3[C@H](N(C)C)C(O)=C(C(N)=O)C(=O)[C@@]3(O)C(O)=C1C2=O [Minocyclin] | nicht beeinträchtigt |  |  |  |  |  |  |  |  |  |  |  |  |
| CC(=O)NC(=O)c1c(OC(C)=O)c2c(c(N(C)C)c1OC(C)=O)CC1Cc3c(N(C)C)ccc(OC(C)=O)c3C(=O)C1=C2OC(C)=O (centres unmarked) [Pentaacetylcyclin] | nicht beeinträchtigt | signifikanten therapeutischen Effekt | signifikanten Einfluss | signifikanten Einfluss | deutliche Verringerung | signifikante Hemmung | ca. 30% | ~60% | signifikante Hemmung | signifikante Hemmung | signifikante Hemmung | keine Veränderung | ca. 20% |

Source: patent publication EP2659887A1, “Use of A-ring aromatic acetyl minocycline and pharmaceutical preparations derived from same for treatment and prevention of inflammation, autoimmune disorders and rejection of transplants” (priority 2012, dated 2013)
